Measurements taken from PubChem BioAssay AID504581 (National Center for Advancing Translational Sciences (NCATS), 2011).

Test system: PBS pH 7.4 stability, 37 C, LC-MS/MS, 48 h
Test: Inhibitors of 12-hLO: PBS Stability Profiling
Conditions: at 2 µM; stronger effect = higher value
Source text: Assay Provider: Holman, T.R., University of California, Santa Cruz Grant #: MH08128301 Screening Center PI: Austin, C.P. Screening Center: NIH Chemical Genomics Center [NCGC] Human lipoxygenase 12hLO is a member of the closely related lipoxygenase family of enzymes which catalyze the site-specific oxidation of arachidonic acid to various hormone precursor molecules and as such is a candidate for drug development in a variety of disease areas, such as cancer and inflammation. After qHTS, hits were confirmed in follow-up assays, and leads were optimized through SAR. The resulting lead compound was further characterized through a battery ADME-Tox experiments, and this assay describes its stability in PBS buffer. The stability of the lead compound in PBS buffer is tested because this parameter has a significant impact on many ADME-concerned properties of drugs, such as uptake, distribution, transport, and eventually bioavailability.
2microM of compound is incubated in PBS buffer at pH 7; the reference compound is procaine. Compounds are incubated at 37 deg C for the pre-determined time periods and the when aliquots are removed. Samples are analyzed with LC-MS/MS.

- percent remaining: 100%
Structure (SMILES): CC(=O)NC(c1cccs1)c1cc(Br)c2cccnc2c1O (stereo unspecified)
